Columns and labels:
Assay in all cases: Growth on urinary catheter segments coated with TDMAC plus composition (roll plate)
[1] = test system: Staph. epidermidis; assay type: cell-based, Staphylococcus epidermidis
Experimental: (§1) Clear vinyl catheter segments (3 cm sections of tubing) that had been preheated (incubated in sterile water at 65° C. overnight) were coated in 5% TDMAC in ethanol for an hour at room temperature. The catheter segments were vigorously washed with sterile water and air-dried. The segments were then immersed in ethanol and coating solution (1000 μg OT+100 μg PS+100 μg EDTA/ml of water) for 2 hours at −20° C. In addition, a few catheter segments were immersed in coating solution alone for 2 hours at −20° C. All the segments were air dried and immersed in a tryptic soy broth culture of Pseudomonas aeruginosa, Klebsiella pneumoniae and Staphylococcus epidermidis for 3 hours at 37° C. The catheter segments were washed 3 times in 3 changes of sterile saline and rolled on tryptic soy agar plates. The plates were incubated overnight at 37° C. and the colonies were counted.

[2] = test system: Klebsiella pneumoniae; assay type: cell-based
Experimental: as §1

[3] = test system: Pseudomonas aeruginosa; assay type: cell-based
Experimental: as §1

[4] = coated vinyl catheter segments vs uncoated control, coating at −20° C.
[5] = coated vinyl catheter segments, coating 2 hours at −20° C., 3 hours in culture at 37° C., CFU per millimeter of catheter tubing

CCCCCCCCCCCC[N+](C)(CCCCCCCCCCCC)CCCCCCCCCCCC.[Cl-] [TDMAC, Tridodecyl Methyl Ammonium Chloride]
% Inhibition [1, 4]: 0%
Viable Counts (CFU/mM) [1, 5]: 20.4 ± 7.7 CFU/mM
% Inhibition [2, 4]: 0%
Viable Counts (CFU/mM) [2, 5]: 4.3 ± 1.3 CFU/mM
% Inhibition [3, 4]: 12%
Viable Counts (CFU/mM) [3, 5]: 18.8 ± 4.6 CFU/mM
